# Measured values reported in patent US20070123546A1, “2-amino-7,8-dihydro-6H-pyrido[4,3-d]pyrimidin-5-ones” (Chiron Corporation, priority 2005, published 2007).
# pIC50: −log10 of the molar value.
# Biological target: His-tagged N-terminal ATP binding domain (amino acid residues 9-236) of HSP90α (Homo sapiens, UniProt P07900)
# Assay: HSP90 inhibitor binding potency: TRF competition binding assay
# Settings: Table 3; competition with biotinylated radicicol
# Summary of the method: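 His-tagged HSP90α N-domain (residues 9-236) incubated 2 h at room temperature with biotinylated radicicol and increasing compound in 50 mM HEPES, 6 mM MgCl2, 20 mM KCl, 0.1% BSA. Bound tracer captured on streptavidin plates, detected with europium anti-His antibody by time-resolved fluorescence; IC50 derived.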
row,SMILES,pIC50
1,"COc1cncc(-c2cc(F)ccc2[C@H]2Cc3nc(N)nc(C)c3C(=O)N2Cc2cccnc2)n1 [Compound 164, (R)-2-Amino-7-[4-fluoro-2-(6-methoxy-pyrazin-2-yl)-phenyl]-4-methyl-6-pyridin-3-ylmethyl-7,8-dihydro-6H-pyrido[4,3-d]pyrimidin-5-one]",> 5.00
2,"Cc1nc(N)nc2c1C(=O)N(CCCNC(=O)OC(C)(C)C)[C@@H](c1ccc(F)cc1Br)C2 [Compound 165, {3-[(R)-2-Amino-7-(2-bromo-4-fluoro-phenyl)-4-methyl-5-oxo-7,8-dihydro-5H-pyrido[4,3-d]pyrimidm-6-yl]-propyl}-carbamic acid tert-butyl ester]",< 5.00
3,"Cc1nc(N)nc2c1C(=O)N(CCCN)[C@@H](c1ccc(F)cc1Br)C2 [Compound 166, (R)-2-Amino-6-(3-amino-propyl)-7-(2-bromo-4-fluoro-phenyl)-4-methyl-7,8-dihydro-6H-pyrido[4,3-d]pyrimidin-5-one]",< 5.00
4,"Cc1nc(N)nc2c1C(=O)N(CCCNC(=O)OC(C)(C)C)[C@@H](c1ccc(F)cc1-c1cccnc1)C2 [Compound 167, {3-[(R)-2-Amino-7-(4-fluoro-2-pyridin-3-yl-phenyl)-4-methyl-5-oxo-7,8-dihydro-5H-pyrido[4,3-d]pyrimidin-6-yl]-propyl}-carbamic acid tert-butyl ester]",> 5.00
5,"Cc1nc(N)nc2c1C(=O)N(CCCN)[C@@H](c1ccc(F)cc1-c1cccnc1)C2 [Compound 168, (R)-2-Amino-6-(3-amino-pnlpropyl)-7-(4-fluoro-2-pyridin-3-yl-phenyl)-4-methyl-7,8-dihydro-6H-pyrido[4,3-d]pyrimidin-5-one]",> 5.00
6,"Cc1nc(N)nc2c1C(=O)N(CCCNC(=O)OC(C)(C)C)[C@@H](c1ccc(F)cc1-c1cccnc1F)C2 [Compound 169, (3-{(R)-2-Amino-7-[4-fluoro-2-(2-fluoro-pyridin-3-yl)-phenyl]-4-methyl-5-oxo-7,8-dihydro-5H-pyrido[4,3-d]pyrimidin-6-yl}-propyl)-carbamic acid tert-butyl ester]",> 5.00
7,"Cc1nc(N)nc2c1C(=O)N(CCCN)[C@@H](c1ccc(F)cc1-c1cccnc1F)C2 [Compound 170, (R)-2-Amino-6-(3-amino-propyl)-7-[4-fluoro-2-(2-fluoro-pyridin-3-yl)-phenyl]-4-methyl-7,8-dihydro-6H-pyrido[4,3-d]pyrimidin-5-one]",< 5.00
8,"COc1cncc(-c2cc(F)ccc2[C@H]2Cc3nc(N)nc(C)c3C(=O)N2CCCN)n1 [Compound 171, (R)-2-Amino-6-(3-amino-propyl)-7-[4-fluoro-2-(6-methoxy-pyrazin-2-yl)-phenyl]-4-methyl-7,8-dihydro-6H-pyrido[4,3-d]pyrimidin-5-one]",> 5.00
9,"COc1cccc(-c2scnc2[C@H]2Cc3nc(N)nc(C)c3C(=O)N2)n1 [Compound 172, (R)-2-Amino-7-[5-(6-methoxy-pyridin-2-yl)-thiazol-4-yl]-4-methyl-7,8-dihydro-6H-pyrido[4,3-d]pyrimidin-5-one]",> 5.00

# Same assay, conditions: Table 4; competition with biotinylated radicicol
row,SMILES,pIC50
1,"CCOc1nc(-c2cc(F)ccc2[C@H]2Cc3nc(N)nc(C)c3C(=O)N2)ncc1F [Compound 174, (R)-2-Amino-7-[2-(4-ethoxy-5-fluoro-pyrunidin-2-yl)-4-fluoro-phenyl]-4-methyl-7,8-dihydro-6H-pyrido[4,3-d]pyrimidin-5-one]",> 5.00
2,"COc1cncc(-c2cc(F)ccc2[C@H]2Cc3nc(N)ncc3C(=O)N2)n1 [Compound 175, (R)-2-Amino-7-[4-fluoro-2-(6-methoxy-pyrazin-2-yl)-phenyl]-7,8-dihydro-6H-pyrido[4,3-d]pyrimidin-5-one]",> 5.00
3,"COc1ccccc1-c1cc(F)ccc1[C@H]1Cc2nc(N)ncc2C(=O)N1 [Compound 176, (R)-2-Amino-7-(5-fluoro-2′-methoxy-biphenyl-2-yl)-7,8-dihydro-6H-pyrido[4,3-d]pyrimidm-5-one]",> 5.00
4,"COc1ccc(F)cc1-c1cc(F)ccc1[C@H]1Cc2nc(N)ncc2C(=O)N1 [Compound 177, (R)-2-Amino-7-(5,5′-difluoro-2′-methoxy-biphenyl-2-yl)-7,8-dihydro-6H-pyrido[4,3-d]pyrimidin-5-one]",> 5.00
5,COc1cc(F)ccc1-c1cc(F)ccc1[C@H]1Cc2nc(N)ncc2C(=O)N1 [Compound 178],> 5.00
6,"COc1ccc(-c2cc(F)ccc2[C@H]2Cc3nc(N)ncc3C(=O)N2)cc1OC [Compound 179, (R)-2-Amino-7-(5-fluoro-3′,4′-dimethoxy-biphenyl-2-yl)-7,8-dihydro-6H-pyrido[4,3-d]pyrimidin-5-one]",≤ 5.00
7,"Cc1cccc(-c2cc(F)ccc2[C@H]2Cc3nc(N)ncc3C(=O)N2)c1 [Compound 180, (R)-2-Amino-7-(5-fluoro-3′-methyl-biphenyl-2-yl)-7,8-dihydro-6H-pyrido[4,3-d]pyrimidin-5-one]",> 5.00
8,"Cc1ccccc1-c1cc(F)ccc1[C@H]1Cc2nc(N)ncc2C(=O)N1 [Compound 181, (R)-2-Amino-7-(5-fluoro-2′-methyl-biphenyl-2-yl)-7,8-dihydro-6H-pyrido[4,3-d]pyrimidin-5-one]",> 5.00
9,"Cc1ccc(-c2cc(F)ccc2[C@H]2Cc3nc(N)ncc3C(=O)N2)cc1 [Compound 182, (R)-2-Amino-7-(5-fluoro-4′-methyl-biphenyl-2-yl)-7,8-dihydro-6H-pyrido[4,3-d]pyrimidin-5-one]",> 5.00
10,"Cc1cc(F)ccc1-c1cc(F)ccc1[C@H]1Cc2nc(N)ncc2C(=O)N1 [Compound 183, (R)-2-Amino-7-(5,4′-difluoro-2′-methyl-biphenyl-2-yl)-7,8-fihydro-6H-pyrido[4,3-d]pyrimidm-5-one]",> 5.00
11,"Cc1nc(N)nc2c1C(=O)N[C@@H](c1ccccc1Br)C2 [Compound 184, (R)-2-Amino-7-(2-bromo-phenyl)-4-methyl-7,8-dihydro-6H-pyrido[4,3-d]pyrimidin-5-one]",≤ 5.00
12,"COc1cnc(-c2cc(F)ccc2[C@H]2Cc3nc(N)nc(C)c3C(=O)N2)nc1OC [Compound 185, (R)-2-Amino-7-[2-(4,5-dimethoxy-pyrimidin-2-yl)-4-fluoro-phenyl]-4-methyl-7,8-dihydro-6H-pyrido[4,3-d]pyrimidin-5-one]",> 5.00
13,"COc1cncc(-c2scnc2[C@H]2Cc3nc(N)nc(C)c3C(=O)N2)n1 [Compound 186, (R)-2-Amino-7-[5-(6-methoxy-pyrazin-2-yl)-thiazol-4-yl]-4-methyl-7,8-dihydro-6H-pyrido[4,3-d]pyrimidin-5-one]",> 5.00
14,"CCOc1cccc(-c2cc(F)ccc2[C@H]2Cc3nc(N)nc(C)c3C(=O)N2)n1 [Compound 187, (R)-2-Amino-7-[2-(6-ethoxy-pyridin-2-yl)-4-fluoro-phenyl]-4-methyl-7,8-dihydro-6H-pyrido[4,3-d]pyrimidin-5-one]",> 5.00
15,"COc1nc(-c2ccccc2[C@H]2Cc3nc(N)nc(C)c3C(=O)N2)cs1 [Compound 188, (R)-2-Amino-7-[2-(2-methoxy-thiazol-4-yl)-phenyl]-4-methyl-7,8-dihydro-6H-pyrido[4,3-d]pyrimidin-5-one]",> 5.00
16,"COc1ncc(-c2ccccc2[C@H]2Cc3nc(N)nc(C)c3C(=O)N2)nc1OC [Compound 189, (R)-2-Amino-7-[2-(5,6-dimethoxy-pyrazin-2-yl)-phenyl]-4-methyl-7,8-dihydro-6H-pyrido[4,3-d]pyrimidin-5-one]",> 5.00
17,"COc1nc(-c2cc(F)ccc2[C@H]2Cc3nc(N)nc(C)c3C(=O)N2)ccc1N [Compound 190, (R)-2-Amino-7-[2-(5-amino-6-methoxy-pyridin-2-yl)-4-fluoro-phenyl]-4-methyl-7,8-dihydro-6H-pyrido[4,3-d]pyrimidin-5-o[…]ne]",> 5.00
18,"Nc1ncc2c(n1)C[C@H](c1ccc(F)cc1-c1cccnc1)NC2=O [Compound 191, (R)-2-Amino-7-(4-fluoro-2-pyridin-3-yl-phenyl)-7,8-dihydro-6H-pyrido[4,3-d]pyrimidin-5-one]",> 5.00
19,"COc1ncc(-c2cc(F)ccc2[C@H]2Cc3nc(N)ncc3C(=O)N2)c(OC)n1 [Compound 192, (R)-2-Amino-7-[2-(2,4-dimethoxy-pyrimidin-5-yl)-4-fluoro-phenyl]-7,8-dihydro-6H-pyrido[4,3-d]pyrimidin-5-one]",≤ 5.00
20,"CCOc1ccnc(-c2cc(F)ccc2[C@H]2Cc3nc(N)nc(C)c3C(=O)N2)n1 [Compound 193, (R)-2-Amino-7-[2-(4-ethoxy-pyrimidin-2-yl)-4-fluoro-phenyl]-4-methyl-7,8-dihydro-6H-pyrido[4,3-d]pyrimidin-5-one]",> 5.00
21,"COc1cncc(-c2ccccc2[C@H]2Cc3nc(N)nc(C)c3C(=O)N2)n1 [Compound 194, (R)-2-Amino-7-[2-(6-methoxy-pyrazin-2-yl)-phenyl]-4-methyl-7,8-dihydro-6H-pyrido[4,3-d]pyrimidin-5-one]",> 5.00
22,"COc1ccnc(-c2cc(F)ccc2[C@H]2Cc3nc(N)nc(C)c3C(=O)N2)n1 [Compound 195, (R)-2-Amino-7-[4-fluoro-2-(4-methoxy-pyrimidin-2-yl)-phenyl]-4-methyl-7,8-dihydro-6H-pyrido[4,3-d]pyrimidin-5-one]",> 5.00
23,"CCOc1nc(-c2cc(F)ccc2[C@H]2Cc3nc(N)nc(C)c3C(=O)N2)cnc1N [Compound 196, (R)-2-Amino-7-[2-(5-amino-6-ethoxy-pyrazin-2-yl)-4-fluoro-phenyl]-4-methyl-7,8-dihydro-6H-pyrido[4,3-d]pyrimidin-5-one]",> 5.00
24,"CCOc1nc(-c2ccccc2[C@H]2Cc3nc(N)nc(C)c3C(=O)N2)cnc1N [Compound 197, (R)-2-Amino-7-[2-(5-amino-6-ethoxy-pyrazin-2-yl)-phenyl]-4-methyl-7,8-dihydro-6H-pyrido[4,3-d]pyrimidin-5-one]",> 5.00
25,"CCc1nc(N)nc2c1C(=O)N[C@@H](c1ccccc1-c1cccc(OC)n1)C2 [Compound 198, (R)-2-Amino-4-ethyl-7-[2-(6-methoxy-pyridin-2-yl)-phenyl]-7,8-dihydro-6H-pyrido[4,3-d]pyrimidin-5-one]",> 5.00
